Assay results from patent publication US20250145627A1, “METTL3 Inhibitor and Composition, and Application of Same in Medicine” (XIZANG HAISCO PHARMACEUTICAL CO., LTD., priority 2022, published 2025).
Read-outs that look alike come from different tables or passages of the source.

Columns and labels:
MOLM-13 cells = test: Cell proliferation test on MOLM-13 cells (Cellriter-Glo); type: cell-based; conditions: Homo sapiens
Description: Cell plating: Cells were plated when they grow to a logarithmic growth phase. The cells were collected and the cell density was adjusted to 6×10^4 cells/mL; then the cell suspension is then poured into a loading slot and added into a 96-well cell culture plate at 50 μL/well (3000 cells/well viable cells). Note: the cells in the loading slot were well mixed while plating; cell information and plating date were labeled on the 96-well plates. NC wells (control wells) and BG wells (background wells) were provided. […] 50 μL/well of the compounds were added to the 96-well plate in which the cells were already plated. Incubation was carried out at 37° C., 5% CO2 for a period of time. Cell proliferation test: After incubation in the incubator for a period of time, 50 μL of […]-Glo Reagent per well was added. The plate was shaken at room temperature (500 rpm), incubated for 10 min in the dark, and then the […] was measured with a microplate reader. The mean background value was calculated. [formula] […] Specific data were presented in the form of graphs.

[1] = Pharmacokinetic test in mice; type: in vivo; conditions: male C57 mice, plasma
Description: • 2.1 Experimental animals: male C57 mice, 18-20 g, 6 mice/compound or 12 mice/compound. • 2.2 Experimental design: the C57 mice were randomly grouped according to their body weights. The animals were fasted with water available for 12 to 14 h one day before the administration, and were fed 4 h after the administration.
Vehicle for intravenous administration: 5% DMA+5% Solutol+90% Saline; vehicle for intragastric administration: 0.5% MC; • (DMA: dimethylacetamide; Solutol: polyethylene glycol-15-hydroxystearate; Saline: physiological saline; MC: Methyl cellulose solution)
Before and after the administration, 0.06 mL of blood was taken from the orbit of the animals under isoflurane anesthesia and placed in an EDTAK2 centrifuge tube. The blood was centrifuged at 5000 rpm and 4° C. for 10 min to collect the plasma. The blood collection time points for the intravenous administration group and intragastric administration group were 0 min, 5 min, 15 min, 30 min, 1 h, 2 h, 4 h, 7 h and 24 h. Before analysis and detection, all samples were stored at −80° C.

[2] = molecular target: T1, hERG potassium ion channel (Homo sapiens, UniProt Q12809); test: Test for hERG potassium ion channel (manual patch-clamp, CHO cells); type: cell-based; conditions: CHO cells stably expressing hERG, whole cell patch-clamp, room temperature; read-out: IC50 for the inhibitory effect on hERG potassium channel current
T1 construct: expressed in transfected cells
From the text: Experimental platform: electrophysiological manual patch-clamp system Cell line: Chinese hamster ovary (CHO) cell lines stably expressing hERG potassium ion channel
Experimental method: in CHO (Chinese Hamster Ovary) cells stably expressing hERG potassium channel, whole cell patch-clamp technique was used to record hERG potassium channel current at room temperature. The glass microelectrode was made of a glass electrode blank (BF150-86-10, Sutter) by a puller. The tip resistance after filling the liquid in the electrode was about 2-5 MO. The glass microelectrode can be connected to the patch-clamp amplifier by inserting the glass microelectrode into an amplifier probe. The clamping voltage and data recording were controlled and recorded by the pClamp 10 software through a computer. The sampling frequency was 10 kHz, and the filtering frequency was 2 kHz. […]
Data processing: Data analysis processing was carried out by using pClamp 10, GraphPad Prism 5 and Excel software. The inhibition degree of hERG potassium current (peak value of hERG tail current induced at −50 mV) at different compound concentrations was calculated by the following formula: […]
Compound IC50 was calculated using GraphPad Prism 5 software by fitting according to the following equation: […]

[3] = MOLM-13, read-out: IC50 on MOLM-13 cells
[4] = MOLM-13 cells, maximum detection concentration 10 μM, read-out: IC50 of compounds on MOLM-13 cells

T1 sequence (Q12809 whole entry): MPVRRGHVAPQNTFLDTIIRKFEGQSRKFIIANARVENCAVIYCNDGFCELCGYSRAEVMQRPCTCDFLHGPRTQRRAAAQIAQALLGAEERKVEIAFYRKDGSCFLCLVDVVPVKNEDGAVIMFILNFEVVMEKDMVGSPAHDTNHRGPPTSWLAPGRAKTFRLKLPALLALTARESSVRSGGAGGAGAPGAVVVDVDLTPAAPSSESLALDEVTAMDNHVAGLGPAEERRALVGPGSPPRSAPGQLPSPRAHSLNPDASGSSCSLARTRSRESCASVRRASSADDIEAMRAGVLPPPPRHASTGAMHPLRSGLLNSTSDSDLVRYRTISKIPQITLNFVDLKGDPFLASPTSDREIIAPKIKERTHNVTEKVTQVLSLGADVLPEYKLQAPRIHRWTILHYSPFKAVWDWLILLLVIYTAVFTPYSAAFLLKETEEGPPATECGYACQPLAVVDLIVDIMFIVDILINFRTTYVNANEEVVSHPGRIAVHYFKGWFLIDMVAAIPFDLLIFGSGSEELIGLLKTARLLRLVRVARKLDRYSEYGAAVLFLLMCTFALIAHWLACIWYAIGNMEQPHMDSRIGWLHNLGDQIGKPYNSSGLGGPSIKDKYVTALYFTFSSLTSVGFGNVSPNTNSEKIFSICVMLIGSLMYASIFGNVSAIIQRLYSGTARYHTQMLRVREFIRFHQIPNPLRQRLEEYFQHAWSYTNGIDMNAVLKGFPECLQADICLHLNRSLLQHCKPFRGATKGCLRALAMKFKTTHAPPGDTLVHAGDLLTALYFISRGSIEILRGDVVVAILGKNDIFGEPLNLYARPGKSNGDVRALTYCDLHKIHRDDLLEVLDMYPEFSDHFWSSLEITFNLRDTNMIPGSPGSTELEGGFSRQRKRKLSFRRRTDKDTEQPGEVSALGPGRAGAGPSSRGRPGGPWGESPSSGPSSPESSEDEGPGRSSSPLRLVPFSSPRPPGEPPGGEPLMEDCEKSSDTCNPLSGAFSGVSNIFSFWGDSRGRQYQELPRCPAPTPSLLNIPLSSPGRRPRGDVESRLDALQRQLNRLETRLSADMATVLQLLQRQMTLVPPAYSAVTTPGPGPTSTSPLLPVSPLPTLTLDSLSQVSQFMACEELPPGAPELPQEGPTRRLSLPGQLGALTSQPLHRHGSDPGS

Compound	IC50 (MOLM-13 cells; [4])	further results
Cn1ccn2c(=O)cc(C(=O)NCc3ccc4cc(CNCC56CC(F)(C5)C6)[nH]c4c3)nc12 [Compound 3]	< 2000 nM	IC50 (MOLM-13 cells; [3]): 230 nM
[2H]C([2H])([2H])n1ccn2c(=O)cc(C(=O)NCc3ccc4cc(CNCC56CC(F)(C5)C6)[nH]c4c3)nc12 [Compound 4]	< 2000 nM	IC50 (MOLM-13 cells; [3]): 160 nM
O=C(NCc1cc2[nH]c(CNCC3CCC3)cc2s1)c1cc(=O)n2cccc(F)c2n1 [Compound 18]	2000 to 10000 nM	–
O=C(NCc1cc2[nH]c(CNC3CCCCC3)cc2s1)c1cc(=O)n2ccccc2n1 [Compound 20]	2000 to 10000 nM	–
CC(C)(C)CNCc1cc2sc(CNC(=O)c3cc(=O)n4ccccc4n3)cc2[nH]1 [Compound 22]	2000 to 10000 nM	–
O=C(NCc1ccc2cc(CNCC34CC(F)(C3)C4)[nH]c2c1)c1cc(=O)n2ccccc2n1 [Compound 23 in WO 2021111124]	–	F ([1]; i.g. 10 mg/kg): 31.6%; AUC(0-t) ([1]; mouse, iv, i.v. 2.5 mg/kg): 730 ng·h/mL; clearance ([1]; mouse, iv, i.v. 2.5 mg/kg): 57 mL/min/kg; Vd ([1]; mouse, iv, i.v. 2.5 mg/kg, read-out: Vdss): 2.21 L/kg; AUC(0-t) ([1]; mouse, po, i.g. 10 mg/kg): 923 ng·h/mL
Cn1ccn2c(=O)cc(C(=O)NCc3ccc4cc(CNCC5CCC5)[nH]c4c3)nc12 [Trifluoroacetate of compound 1]	< 2000 nM	–
O=C(NCc1ccc2cc(CNCC3CCC3)[nH]c2c1)c1cc(=O)n2cc[nH]c2n1 [Trifluoroacetate of compound 2]	2000 to 10000 nM	–
O=C(NCc1ccc2cc(CNCC3CCC3)[nH]c2c1)c1cc(=O)n2ccn(CC3CC3)c2n1 [Trifluoroacetate of compound 5]	2000 to 10000 nM	–
CC(C)n1ccn2c(=O)cc(C(=O)NCc3ccc4cc(CNCC5CCC5)[nH]c4c3)nc12 [Trifluoroacetate of compound 6]	2000 to 10000 nM	–
CCn1ccn2c(=O)cc(C(=O)NCc3ccc4cc(CNCC56CC(F)(C5)C6)[nH]c4c3)nc12 [Trifluoroacetate of compound 8]	–	IC50 (MOLM-13 cells; MOLM-13, read-out: IC50 of compounds on MOLM-13 cells): < 2000 nM
CCn1ccn2c(=O)cc(C(=O)NCc3ccc4cc(CNCC5CCC5)[nH]c4c3)nc12 [Trifluoroacetate of compound 9]	2000 to 10000 nM	–
C#CCn1ccn2c(=O)cc(C(=O)NCc3ccc4cc(CNCC5CCC5)[nH]c4c3)nc12 [Trifluoroacetate of compound 10]	< 2000 nM	–
O=C(NCc1ccc2cc(CNCC3CCC3)[nH]c2c1)c1cc(=O)n2ccn(C3CC3)c2n1 [Trifluoroacetate of compound 11]	2000 to 10000 nM	–
O=C(NCc1cc2[nH]c(CNCC3CCC3)cc2s1)c1cc(=O)n2ccccc2n1 [Trifluoroacetate of compound 12]	< 2000 nM	IC50 [2]: > 30000 nM
O=C(NCc1cc2[nH]c(CNCC34CC(F)(C3)C4)cc2s1)c1cc(=O)n2ccn(C(F)F)c2n1 [Trifluoroacetate of compound 14]	2000 to 10000 nM	–
O=C(NCc1cc2[nH]c(CNCC3CCC3)cc2s1)c1cc(=O)n2cc(F)ccc2n1 [Trifluoroacetate of compound 16]	2000 to 10000 nM	–
O=C(NCc1cc2[nH]c(CNCC3CCC3)cc2s1)c1cc(=O)n2ccc(C3CC3)cc2n1 [Trifluoroacetate of compound 17]	2000 to 10000 nM	–
